Peptide text beside a SMILES is read from it.
Tested on: MB231 breast cancer cells
Assay: In vitro screen for anti-tumor effects: proliferation of MB231 cells (MTS)
Assay type: cell-based
Conditions: 20 μg/ml, end of 3 days of incubation, MTS absorbance at 490 nm vs water control
Protocol: A typical in vitro screen for anti-tumor or anti-cancer effects was carried out as follows.
An aliquot of 2,000 MB231 breast cancer cells (breast carcinoma cells) in 100 μl DMEM complete media (Sigma Chemical Co.) was plated in a 96 well plate containing at a concentration of 20 μg/ml a test substance or control water. To measure proliferation of the cancer cells, an aliquot of 20 μl of MTS reagent (Promega Co.) was added to each well and the cells were incubated at […] for a total of three days. The cells rapidly metabolized MTS reagent and the metabolized MTS reagent was measured at 490 nm at the end of days 1, 2 and 3. The reading was proportional to the number of cancer cells. The decrease in absorbance at each time point indicated fewer cancer cells. At the end of day 3, the decrease in absorbance with respect to the control indicated the inhibition by the test substance.

## CC(=O)N[C@H](C(=O)N[C@@H](C)C(N)=O)C(C)C [N-Ac-L-Val-L-Ala-NH2] (Ac-Val-Ala-NH2)
  inhibition of the growth of breast cancer cells: approximately 12%

Source: patent US11224565B2, “N-acyldipeptide derivatives and their uses” (NeoStrata Company, Inc., priority 2011, dated 2022)
